According to patent US12544442B2, “Biocompatible nanomagnetic discs and methods of use thereof” (priority 2018, dated 2026):

Assays:
HL60 cells [1] = experiment: Rat HL60/estradiol tumor model with magnetic field exposure, tumor histopathology (H&E); type: in vivo; settings: paclitaxel treated group, 40 mg/kg body weight; H&E 400×
Description: (§1) Efficacy studies of BMND were conducted in a rat model. Rats were injected with HL60 cells and estradiol to induce the generation of tumors on various organs. This is a well-established rat model of human tumors. The positive control comprised six healthy rats with no tumor induction and no drug treatment. The negative control comprised six tumor bearing rats with no drug treatment. The test groups included six rats in each group, all induced for tumors, and treated with either paclitaxel (gold standard chemotherapeutic; 40 mg/KG body weight), anti-HL60-BMND at 100 μg/kG body weight, or anti-HL60-BMND at 200 μg/KG body weight.
(§2) Procedure: Rats were inoculated with estradiol-17ß (1.7 mg/pellet) before an injection of 1×10^7 HL60 cells intravenously into tail vein. If tumor observed at various organs, the tumor size could be measured in three dimensions with calipers every 2 days starting at day 7. If tumor was not observed/not palpable, then tumor induction was confirmed by histopathology. […] After confirmation of tumor induction by histopathology, treatment was started.
The rats were exposed to magnetic field according to the following protocol. […] The following parameters were recorded: Treatment Time—60 minutes; Magnetic field intensity—90 G (Gauss); Frequency—20 Hz. […]
Confirmation of tumor was assessed as follows: Formalin fixed tissue of tumor area samples from various organs were received. […]

HL60 cells [2] = experiment: Rat HL60/estradiol tumor model with magnetic field exposure, cancer cell count in blood; type: in vivo
Description: as §1, §2
The rats were exposed to magnetic field according to the following protocol. Rats strapped to the VFVF magnetizer as described above. The device was switched on to apply magnetic force of known intensity, frequency and duration to cause “flip/flop” action in the biocompatible magnetic nanodiscs. This application of oscillating field force is expected to cause the Nanomagnetic particles bound to the cell to “flip/flop.” This action is expected to damage the cell wall leading to apoptosis. The following parameters were recorded: Treatment Time—60 minutes; Magnetic field intensity—90 G (Gauss); Frequency—20 Hz. Waveform—sinusoidal
Cancer cell count in blood was ascertained for the treatment groups.

[3] = Paclitaxel 40 mg/kg body weight
[4] = STD group (Paclitaxel 40 mg/kg), baseline

CC(=O)O[C@H]1C(=O)[C@@]2(C)[C@H]([C@H](OC(=O)c3ccccc3)[C@]3(O)C[C@H](OC(=O)[C@H](O)[C@@H](NC(=O)c4ccccc4)c4ccccc4)C(C)=C1C3(C)C)[C@]1(OC(C)=O)CO[C@@H]1C[C@@H]2O [Paclitaxel]
tumor histopathology (FIG. 8C) (HL60 cells [1]): neoplastic cells (small arrow) with stromal reaction, mitotic figures (arrow head), inflammation and necrosis (large arrow)
Apoptotic cancer cells present per ml in the blood, After treatment 144 hrs (HL60 cells [2]; [3]): 5.20 × 10^3 per ml in the blood
Viable cancer cells present per ml of blood, After treatment 144 hrs (HL60 cells [2]; [3]): 5.47 × 10^3 per ml of blood
Apoptotic cancer cells present per ml in the blood, Before treatment (HL60 cells [2]; [4]): 852 per ml in the blood
Viable cancer cells present per ml of blood, Before treatment (HL60 cells [2]; [4]): 16.08 × 10^3 per ml of blood
